For seven molecules, TGI results are on record in PubChem BioAssay (NCI).

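1) Cells in 96-well plates. 2) Compound, 48 h, 5 concentrations. 3) Linear interpolation between surrounding doses. 4) Unreached endpoint = highest concentration. TGI marks complete inhibition of growth.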

Test in all cases: NCI-60 cell line screen, 48 h
Test [1] has as its system SF-539 CNS.
Test [2] relates to OVCAR-3 ovarian.
Test [3] deals with K-562 leukemia.
In test [4] the test system is BT-549 breast.
Test [5] concerns UACC-257 melanoma.
The subject of test [6] is OVCAR-5 ovarian.
In test [7] the test system is 786-0 renal.
Test [8] relates to SK-MEL-5 melanoma.
Test [9] has as its system ACHN renal.
Test [10] deals with IGROV1 ovarian.
The subject of test [11] is M14 melanoma.
Test [12] relates to MDA-MB-231 breast.
Test [13] concerns OVCAR-4 ovarian.
Test [14] concerns HOP-92 NSCLC.
The test system of test [15] is MDA-MB-435.
Test [16] concerns MCF7 breast.
For test [17], the system named is SF-295 CNS.
In test [18] the test system is NCI-H522 lung.
Test [19] has as its system U251 CNS.
In test [20] the test system is CCRF-CEM leukemia.

Regarding `COc1cc2c(cc1OC)C(=O)/C(=C/c1ccccc1)C2`, the TGI is > 100 µM in test [1]; > 100 µM in test [2]; > 65.6 µM in test [3]; > 100 µM in test [4]; > 100 µM in test [5]; > 100 µM in test [6]. Further, the TGI is > 100 µM in test [7]; > 84.1 µM in test [8]; > 100 µM in test [9]; > 100 µM in [10]; > 100 µM in test [11]; > 100 µM in test [12]. In addition, the TGI in test [13], in test [14], in test [15], in [16], in test [17] and in [18] was > 100 µM throughout. Besides, the values for the TGI in test [19] and in test [20] were > 100 µM and 99.4 µM, respectively.

`CN(C)CC1CN(C(=O)Nc2ccccc2)C(=N)O1` (stereo not given): the TGI in test [1], in test [2], in test [3], in test [4], in test [5] and in [6] was > 100 µM each time. The TGI in test [7], in test [8], in [9], in test [10], in test [11] and in test [12] was > 100 µM in each case. In addition, the TGI in test [13], in test [14], in test [15], in test [16], in test [17] and in [18] was > 100 µM in each case. In addition, the TGI in test [19] and in test [20] was > 100 µM in each case.

With `Cc1ccc2nc(Cl)c(/C=N/N3C(=O)/C(=C/Cc4ccco4)N=C3c3ccccc3)cc2c1`, the TGI in [1] is 88.4 µM; in [2] it was > 100 µM; in test [3] it was > 100 µM; in [4], > 90.9 µM; in [5] it was 71.8 µM; in test [6], > 100 µM. Also, the TGI in test [7] was 47.3 µM; in test [8] it was > 100 µM; in test [9] it was > 100 µM; in [10], 53.9 µM; in test [11] it was 73.9 µM; in test [12], > 100 µM. In addition, the TGI in test [13] was > 100 µM; in test [14], 66.5 µM; in [15], 5.29 µM; in [16], > 93.9 µM; in test [17] it was > 100 µM; in test [18], 74 µM. In addition, the TGI in test [19] and in test [20] was > 100 µM each time.

`N=C(N)c1ccc(-c2ccc(-c3ccc(C(=N)N)cc3)o2)cc1`: the TGI is > 100 µM in test [1]; > 100 µM in test [2]; > 100 µM in test [3]; > 100 µM in test [4]; 87.2 µM in test [5]; 99.2 µM in test [6]. The TGI was 59.7 µM in test [7]; 33 µM in test [8]; > 100 µM in test [9]; > 100 µM in test [10]; > 100 µM in test [11]; > 100 µM in test [12]. The TGI in [13], in test [14], in test [15], in [16], in test [17] and in [18] was > 100 µM throughout. Further, the TGI in [19] is 34.7 µM; in [20] it was > 100 µM.

Consider `CO[C@H]1C[C@H](O[C@H]2CC[C@]3(C=O)[C@H]4CC[C@]5(C)[C@@H](C6=CC(=O)OC6)CC[C@]5(O)[C@@H]4CC[C@]3(O)C2)O[C@H](C)[C@H]1O[C@@H]1O[C@H](CO[C@@H]2O[C@H](CO)[C@@H](O)[C@H](O)[C@H]2O)[C@@H](O)[C@H](O)[C@H]1O`, for which the TGI was 0.12 µM in [1]; 0.0809 µM in [2]; > 100 µM in [3]; 0.164 µM in [4]; 1.27 µM in [5]; 0.199 µM in test [6]. For the same molecule, the TGI in test [7] was 0.0781 µM; in test [8], 0.124 µM; in [9], 0.135 µM; in test [10], 0.825 µM; in [11], 0.312 µM; in [12], 2.1 µM. For the same molecule, the TGI in [13] came to 0.144 µM; in [14], 0.367 µM; in [15] it was 0.281 µM; in test [16] it was 0.677 µM; in test [17] it was 0.161 µM; in test [18], 0.0638 µM. The TGI was 0.202 µM in [19] and > 100 µM in test [20].

Regarding `COc1cc(CNC(=O)CCCCCCCCCCSSCCCCCCCCCCC(=O)NCc2ccc(O)c(OC)c2)ccc1O`, the TGI in test [1], in test [2], in test [3], in [4], in [5] and in test [6] was > 10 µM each time. The TGI in test [7], in test [8], in test [9], in [10], in [11] and in test [12] was > 10 µM each time. For the same molecule, the TGI in [13], in test [14], in test [15], in test [16], in [17] and in test [18] was > 10 µM each time. In addition, the TGI in test [19] and in test [20] was > 10 µM throughout.

For the molecule `Cc1ccc(OCCn2cc(Nc3ccccc3)c(=O)[nH]c2=O)cc1`, the TGI in test [1], in test [2], in test [3], in test [4], in [5] and in [6] was > 100 µM in each case. The TGI in test [7], in [8], in test [9], in test [10], in test [11] and in [12] was > 100 µM throughout. In addition, the TGI in test [13], in test [14], in test [15], in test [16], in test [17] and in [18] was > 100 µM throughout. Also, the TGI in test [19] and in [20] was > 100 µM throughout.
